This note sets out measurements from patent US11161850B2, “Fused pyrazine derivatives as A2A / A2B inhibitors” (Incyte Corporation, priority 2018, dated 2021).

Like-named read-outs stand apart in the source and are kept apart here.

One assay addresses Adenosine A2A (Homo sapiens (Human), UniProt P29274). As to the kind of experiment: A2A Tag-Lite HTRF assay. It is filed as binding. An excerpt:
Example C. A2A Tag-Lite® HTRF Assay

The target of assay [1] is human adenosine A2B receptor (Homo sapiens (Human), UniProt P29275). As to the kind of experiment: Adenosine A2B Receptor Cyclic AMP GS Assay. It is filed as cell-based. Particulars: HEK-293 cells expressing human A2B, agonist NECA 12 nM. The procedure:
Example B. Adenosine A2B Receptor Cyclic AMP GS Assay
Stably transfected HEK-293 cells expressing the human adenosine A2B receptor (Perkin Elmer) were maintained in MEM culture medium with 10% FBS and 100 μg/mL Geneticin (Life Technologies). 18 to 24 hours prior to assay, geneticin was removed from culture. The cisbio cAMP-GS Dynamic kit utilizing the FRET (Fluorescence Resonance Energy Transfer) technology was used to measure cAMP accumulation in the cells. Compounds of the present disclosure at an appropriate concentration were mixed with 10000 cells/well in white 96 well half area plates (Perkin Elmer) for 30 min at room temperature gently shaking. Agonist, NECA (R&D Technologies) at 12 nM was added to each well for 60 min at room temperature gently shaking. Detection reagents, d2-labeled cAMP (acceptor) and anti-cAMP cryptate (donor) were added to each well for 60 min at rt gently shaking. Plates were read on Pherastar (BMG Labtech), fluorescence ratio 665/620 was calculated and EC50 determination was performed by fitting the curve of percent of control versus the log of the compound concentration using GraphPad Prism.

The mark [2] stands for this setting: Tag-Lite Adenosine A2A labeled cells, fluorescent ligand 12.5 nM, read-out: A2A_Ki.
[3] abbreviates: read-out: A2A_Ki, Tag-Lite Adenosine A2A labeled cells, fluorescent ligand 12.5 nM.

Sequence of Adenosine A2A (P29274 whole entry): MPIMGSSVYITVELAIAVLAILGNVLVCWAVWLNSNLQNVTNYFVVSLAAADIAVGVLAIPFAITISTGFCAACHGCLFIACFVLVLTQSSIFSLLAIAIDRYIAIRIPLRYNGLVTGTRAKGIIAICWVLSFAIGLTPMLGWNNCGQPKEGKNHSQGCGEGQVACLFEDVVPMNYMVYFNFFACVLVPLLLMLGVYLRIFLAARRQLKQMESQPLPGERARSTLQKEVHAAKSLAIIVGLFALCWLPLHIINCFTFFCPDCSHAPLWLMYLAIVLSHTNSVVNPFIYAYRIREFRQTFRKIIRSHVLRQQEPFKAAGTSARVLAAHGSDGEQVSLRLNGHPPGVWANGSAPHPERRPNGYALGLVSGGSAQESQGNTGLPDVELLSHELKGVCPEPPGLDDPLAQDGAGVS
Sequence of human adenosine A2B receptor (P29275 whole entry): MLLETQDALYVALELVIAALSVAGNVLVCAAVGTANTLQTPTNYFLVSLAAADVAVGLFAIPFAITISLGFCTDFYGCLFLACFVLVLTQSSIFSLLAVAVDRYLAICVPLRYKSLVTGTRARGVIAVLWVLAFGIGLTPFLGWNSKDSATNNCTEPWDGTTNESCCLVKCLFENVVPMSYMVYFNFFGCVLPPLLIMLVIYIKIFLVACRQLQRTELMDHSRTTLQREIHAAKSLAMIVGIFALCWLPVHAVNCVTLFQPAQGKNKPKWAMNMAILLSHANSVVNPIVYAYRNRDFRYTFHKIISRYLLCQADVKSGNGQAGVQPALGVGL

On to `N#Cc1cccc(-c2nc(N)c3cc(C(O)c4ccccc4F)nn3c2-c2ccncn2)c1` (racemic) [Example 23, 3-(4-Amino-2-((2-fluorophenyl)(hydroxy)methyl)-7-(pyrimidin-4-yl)pyrazolo[1,5-a]pyrazin-6-yl)benzonitrile], for which the Ki on Adenosine A2A (setting [2]) was less than 10 nM. Also, in assay [1] (A2B_cAMP_EC50 (nM)), the EC50 is less than 10 nM.

With `Cc1ncoc1-c1c(-c2cccc(C#N)c2)nc(N)c2nc(C(O)c3ccccn3)nn12` (racemic) [Example 40, 3-(8-Amino-2-(hydroxy(pyridin-2-yl)methyl)-5-(4-methyloxazol-5-yl)-[1,2,4]triazolo[1,5-a]pyrazin-6-yl)benzonitrile], the Ki on Adenosine A2A (setting [2]) was less than 10 nM. Besides, the EC50 in assay [1] (A2B_cAMP_EC50 (nM)) is less than 10 nM.

With `N#Cc1cccc(-c2nc(N)c3nc(C(O)c4c(F)cccc4F)nn3c2-c2ccc3nncn3c2)c1` (racemic) [Example 104, 3-(5-([1,2,4]triazolo[4,3-a]pyridin-6-yl)-8-amino-2-((2,6-difluorophenyl)(hydroxy)methyl)-[1,2,4]triazolo[1,5-a]pyrazin-6-yl)benzonitrile], at Adenosine A2A (setting [2]), the Ki was less than 10 nM. The same compound yielded an EC50 in assay [1] (A2B_cAMP_EC50 (nM)) of 10 to 100 nM.

Turning to `N#Cc1cccc(-c2cn3nc(C(O)c4c(F)cccc4CN4CCN5C(=O)CCC5C4)nc3c(N)n2)c1F` (racemic) [Example 113, 3-(8-amino-2-((2-fluoro-6-((6-oxohexahydropyrrolo[1,2-a]pyrazin-2(1H)-yl)methyl)phenyl)(hydroxy)methyl)-[1,2,4]triazolo[1,5-a]pyrazin-6-yl)-2-fluorobenzonitrile], on Adenosine A2A (setting [2]), the Ki is less than 10 nM. In assay [1] (A2B_cAMP_EC50 (nM)), this compound registered an EC50 of 10 to 100 nM.

Compound `N#Cc1cccc(-c2nc(N)c3nc(C(O)c4c(F)cccc4F)nn3c2-c2ccncn2)c1` (single isomer, unassigned) [Example 49, 3-(8-Amino-2-((2,6-difluorophenyl)(hydroxy)methyl)-5-(pyrimidin-4-yl)-[1,2,4]triazolo[1,5-a]pyrazin-6-yl)benzonitrile] displayed a Ki at Adenosine A2A of less than 10 nM. In addition, the EC50 in assay [1] (A2B_cAMP_EC50 (nM)) is less than 10 nM.

With `N#Cc1cccc(-c2nc(N)c3nc(C(O)c4c(F)cccc4F)nn3c2-c2ccncn2)c1` (single isomer, unassigned) [Example 50, 3-(8-Amino-2-((2,6-difluorophenyl)(hydroxy)methyl)-5-(pyrimidin-4-yl)-[1,2,4]triazolo[1,5-a]pyrazin-6-yl)benzonitrile], the Ki on Adenosine A2A (setting [3]) is less than 10 nM. Further, in assay [1] (read-out: A2B_cAMP_EC50), the EC50 is less than 10 nM.

Compound `N#Cc1cccc(-c2nc(N)c3nc(C(O)c4cc(F)ccc4F)nn3c2-c2ccncn2)c1` (single isomer, unassigned) [Example 51, 3-(8-Amino-2-((2,5-difluorophenyl)(hydroxy)methyl)-5-(pyrimidin-4-yl)-[1,2,4]triazolo[1,5-a]pyrazin-6-yl)benzonitrile] registered a Ki on Adenosine A2A of less than 10 nM. The compound further gave an EC50 in assay [1] (A2B_cAMP_EC50 (nM)) of less than 10 nM.

Consider `N#Cc1cccc(-c2nc(N)c3nc(C(O)c4cc(F)ccc4F)nn3c2-c2ccncn2)c1` (single isomer, unassigned) [Example 52, 3-(8-Amino-2-((2,5-difluorophenyl)(hydroxy)methyl)-5-(pyrimidin-4-yl)-[1,2,4]triazolo[1,5-a]pyrazin-6-yl)benzonitrile], for which the Ki at Adenosine A2A (setting [3]) is less than 10 nM. Also, the EC50 in assay [1] (read-out: A2B_cAMP_EC50) was less than 10 nM.

On Adenosine A2A, `N#Cc1cccc(-c2nc(N)c3nc(C(O)c4cccc(F)c4F)nn3c2-c2ccncn2)c1` (single isomer, unassigned) [Example 53, 3-(8-Amino-2-((2,3-difluorophenyl)(hydroxy)methyl)-5-(pyrimidin-4-yl)-[1,2,4]triazolo[1,5-a]pyrazin-6-yl)benzonitrile] gave a Ki of less than 10 nM. In addition, the EC50 in assay [1] (A2B_cAMP_EC50 (nM)) was less than 10 nM.

In the case of `N#Cc1cccc(-c2nc(N)c3nc(C(O)c4cccc(F)c4F)nn3c2-c2ccncn2)c1` (single isomer, unassigned) [Example 54, 3-(8-Amino-2-((2,3-difluorophenyl)(hydroxy)methyl)-5-(pyrimidin-4-yl)-[1,2,4]triazolo[1,5-a]pyrazin-6-yl)benzonitrile], the Ki at Adenosine A2A (setting [3]) was less than 10 nM. Also, the EC50 in assay [1] (read-out: A2B_cAMP_EC50) was less than 10 nM.

On to `N#Cc1cccc(-c2nc(N)c3nc(C(O)c4ccccc4F)nn3c2-c2ccncn2)c1` (single isomer, unassigned) [Example 55, 3-(8-Amino-2-((2-fluorophenyl)(hydroxy)methyl)-5-(pyrimidin-4-yl)-[1,2,4]triazolo[1,5-a]pyrazin-6-yl)benzonitrile], for which the Ki at Adenosine A2A is less than 10 nM. In assay [1] (A2B_cAMP_EC50 (nM)), this compound yielded an EC50 of less than 10 nM.

On to `N#Cc1cccc(-c2nc(N)c3nc(C(O)c4ccccc4F)nn3c2-c2ccncn2)c1` (single isomer, unassigned) [Example 56, 3-(8-Amino-2-((2-fluorophenyl)(hydroxy)methyl)-5-(pyrimidin-4-yl)-[1,2,4]triazolo[1,5-a]pyrazin-6-yl)benzonitrile], for which, at Adenosine A2A (setting [3]), the Ki is less than 10 nM. Besides, in assay [1] (read-out: A2B_cAMP_EC50), the EC50 was less than 10 nM.

`N#Cc1cccc(-c2nc(N)c3nc(C(O)c4ccccc4Cl)nn3c2-c2ccncn2)c1` (single isomer, unassigned) [Example 57, 3-(8-Amino-2-((2-chlorophenyl)(hydroxy)methyl)-5-(pyrimidin-4-yl)-[1,2,4]triazolo[1,5-a]pyrazin-6-yl)benzonitrile] showed a Ki on Adenosine A2A of less than 10 nM. Further, the EC50 in assay [1] (A2B_cAMP_EC50 (nM)) is less than 10 nM.

With `N#Cc1cccc(-c2nc(N)c3nc(C(O)c4ccccc4Cl)nn3c2-c2ccncn2)c1` (single isomer, unassigned) [Example 58, 3-(8-Amino-2-((2-chlorophenyl)(hydroxy)methyl)-5-(pyrimidin-4-yl)-[1,2,4]triazolo[1,5-a]pyrazin-6-yl)benzonitrile], on Adenosine A2A (setting [3]), the Ki was less than 10 nM. Moreover, in assay [1] (read-out: A2B_cAMP_EC50), the EC50 was less than 10 nM.

The compound `CCn1nccc1-c1c(-c2cccc(C#N)c2)nc(N)c2nc(C(O)c3c(F)cccc3F)nn12` (single isomer, unassigned) [Example 92, 3-(8-amino-2-((2,6-difluorophenyl)(hydroxy)methyl)-5-(1-ethyl-1H-pyrazol-5-yl)-[1,2,4]triazolo[1,5-a]pyrazin-6-yl)benzonitrile] had a Ki on Adenosine A2A of less than 10 nM. The compound further yielded an EC50 in assay [1] (A2B_cAMP_EC50 (nM)) of less than 10 nM.

With `CCn1nccc1-c1c(-c2cccc(C#N)c2)nc(N)c2nc(C(O)c3c(F)cccc3F)nn12` (single isomer, unassigned) [Example 93, 3-(8-amino-2-((2,6-difluorophenyl)(hydroxy)methyl)-5-(1-ethyl-1H-pyrazol-5-yl)-[1,2,4]triazolo[1,5-a]pyrazin-6-yl)benzonitrile], the Ki at Adenosine A2A (setting [3]) was less than 10 nM. Further, in assay [1] (read-out: A2B_cAMP_EC50), the EC50 was less than 10 nM.

On to `Cc1cc(-c2c(-c3cccc(C#N)c3)nc(N)c3nc(C(O)c4c(F)cccc4F)nn23)cc(C)n1` (single isomer, unassigned) [Example 94, 3-(8-amino-2-((2,6-difluorophenyl)(hydroxy)methyl)-5-(2,6-dimethylpyridin-4-yl)-[1,2,4]triazolo[1,5-a]pyrazin-6-yl)benzonitrile], for which the Ki at Adenosine A2A was less than 10 nM. In assay [1] (A2B_cAMP_EC50 (nM)), the EC50 was in the range of 10 to 100 nM.

`Cc1cc(-c2c(-c3cccc(C#N)c3)nc(N)c3nc(C(O)c4c(F)cccc4F)nn23)cc(C)n1` (single isomer, unassigned) [Example 95, 3-(8-amino-2-((2,6-difluorophenyl)(hydroxy)methyl)-5-(2,6-dimethylpyridin-4-yl)-[1,2,4]triazolo[1,5-a]pyrazin-6-yl)benzonitrile]: the Ki on Adenosine A2A (setting [3]) is less than 10 nM. The EC50 in assay [1] (read-out: A2B_cAMP_EC50) is 10 to 100 nM.

On to `N#Cc1cccc(-c2nc(N)c3nc(C(O)c4c(F)cccc4OC(F)F)nn3c2-c2ccncn2)c1` (single isomer, unassigned) [Example 97, 3-(8-amino-2-((2-(difluoromethoxy)-6-fluorophenyl)(hydroxy)methyl)-5-(pyrimidin-4-yl)-[1,2,4]triazolo[1,5-a]pyrazin-6-yl)benzonitrile], for which the Ki on Adenosine A2A was less than 10 nM. For the same compound, in assay [1] (A2B_cAMP_EC50 (nM)), the EC50 was less than 10 nM.

Take `N#Cc1cccc(-c2nc(N)c3nc(C(O)c4c(F)cccc4OC(F)F)nn3c2-c2ccncn2)c1` (single isomer, unassigned) [Example 98, 3-(8-amino-2-((2-(difluoromethoxy)-6-fluorophenyl)(hydroxy)methyl)-5-(pyrimidin-4-yl)-[1,2,4]triazolo[1,5-a]pyrazin-6-yl)benzonitrile]: the Ki on Adenosine A2A (setting [3]) was less than 10 nM. Moreover, the EC50 in assay [1] (read-out: A2B_cAMP_EC50) is less than 10 nM.

For `CN(C)Cc1cccc(F)c1C(O)c1nc2c(N)nc(-c3cccc(C#N)c3)c(-c3ccncn3)n2n1` (single isomer, unassigned) [Example 100, 3-(8-amino-2-((2-((dimethylamino)methyl)-6-fluorophenyl)(hydroxy)methyl)-5-(pyrimidin-4-yl)-[1,2,4]triazol[1,5-a]pyrazin-6-yl)benzonitrile], the Ki at Adenosine A2A was less than 10 nM. In addition, the EC50 in assay [1] (A2B_cAMP_EC50 (nM)) was in the range of 100 to 1000 nM.

For the compound `CN(C)Cc1cccc(F)c1C(O)c1nc2c(N)nc(-c3cccc(C#N)c3)c(-c3ccncn3)n2n1` (single isomer, unassigned) [Example 101, 3-(8-amino-2-((2-((dimethylamino)methyl)-6-fluorophenyl)(hydroxy)methyl)-5-(pyrimidin-4-yl)-[1,2,4]triazolo[1,5-a]pyrazin-6-yl)benzonitrile], the Ki at Adenosine A2A (setting [3]) was less than 10 nM. Also, the EC50 in assay [1] (A2B_cAMP_EC50 (nM)) is less than 10 nM.
